In the supplement of paper PMC10331698:
± gives the standard deviation of the averaged measurements.

How the values were obtained:
Test in all cases: level (log10 ratio to DMSO vehicle control); higher = higher biomarker level / cell amount than vehicle control
[1] = compound: O=C(O)C(F)(F)C(F)(F)C(F)F [4H-Perfluorobutanoic acid]; conditions: in DMSO
Protocol: (§1)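 BioMAP Diversity Plus panel of 12 human primary cell co-culture systems (3C, 4H, LPS, SAg, BT, BF4T, BE3C, CASM3C, HDF3CGF, KF3CT, MyoF, Mphg). Compounds were added 1 h before stimulation and left for 24 h (MyoF 48 h; BT 72 h for soluble read-outs or 6 d for IgG). Biomarkers were read by ELISA, cytotoxicity by SRB, PBMC viability and proliferation by Alamar Blue. Each well value was divided by the mean of 8 DMSO control wells on the same plate and log10 transformed; duplicate blinded samples were tested at 4 concentrations.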

Perfluoropentanoic acid = compound: O=C(O)C(F)(F)C(F)(F)C(F)(F)C(F)(F)F [Perfluoropentanoic acid]; conditions: in DMSO
Protocol: as §1

[2] = compound: FC(F)(F)C(F)(F)C(F)(F)C(F)(F)C(F)(F)C(F)(F)C(F)(F)C(F)(F)CCS [2-(Perfluorooctyl)ethanthiol]; conditions: in DMSO
Protocol: as §1

[3] = compound: FC(F)(F)C(F)(F)C(F)(F)C(F)(F)C(F)(F)CCI [1-Iodo-1H,1H,2H,2H-perfluoroheptane]; conditions: in DMSO
Protocol: as §1

Perfluoro-1-iodohexane = compound: FC(F)(F)C(F)(F)C(F)(F)C(F)(F)C(F)(F)C(F)(F)I [Perfluoro-1-iodohexane]; conditions: in DMSO
Protocol: as §1

Perfluorodecanoic acid = compound: O=C(O)C(F)(F)C(F)(F)C(F)(F)C(F)(F)C(F)(F)C(F)(F)C(F)(F)C(F)(F)C(F)(F)F [Perfluorodecanoic acid]; conditions: in DMSO
Protocol: as §1

[4] = compound: O=S(=O)(O)C(F)(F)C(F)(F)C(F)(F)C(F)(F)C(F)(F)C(F)(F)F [Perfluorohexanesulfonic acid]; conditions: in DMSO
Protocol: as §1

[5] = compound: OCCCC(F)(F)C(F)(F)C(F)(F)C(F)(F)C(F)(F)C(F)(F)C(F)(F)F [7:3 Fluorotelomer alcohol]; conditions: 6700 nM; in DMSO
Protocol: as §1

Row | Test System | level (log10) ([1]; 6700 nM) | level (log10) ([1]; 20000 nM) | level (log10) ([1]; 60000 nM) | level (log10) (Perfluoropentanoic acid; 6700 nM) | level (log10) (Perfluoropentanoic acid; 20000 nM) | level (log10) (Perfluoropentanoic acid; 60000 nM) | level (log10) ([2]; 6700 nM) | level (log10) ([2]; 20000 nM) | level (log10) ([3]; 6700 nM) | level (log10) ([3]; 20000 nM) | level (log10) ([3]; 60000 nM) | level (log10) (Perfluoro-1-iodohexane; 6700 nM) | level (log10) (Perfluoro-1-iodohexane; 20000 nM) | level (log10) (Perfluoro-1-iodohexane; 60000 nM) | level (log10) (Perfluorodecanoic acid; 6700 nM) | level (log10) (Perfluorodecanoic acid; 20000 nM) | level (log10) ([4]; 6700 nM) | level (log10) ([4]; 20000 nM) | level (log10) ([4]; 60000 nM) | level (log10) [5]
1 | 3C:CCL2/MCP-1 | -0.02 ± 0.061 | -0.006 ± 0.05 | 0.0215 ± 0.03 | -0.0105 ± 0.00071 | 0.0005 ± 0.0021 | 0.0215 ± 0.019 | 0.0045 ± 0.035 | 0.0135 ± 0.0078 | -0.0135 ± 0.0021 | -0.009 ± 0.0099 | 0.0045 ± 0.025 | -0.0105 ± 0.0021 | -0.006 ± 0.02 | 0.003 ± 0.047 | 0.0065 ± 0.013 | -0.004 ± 0.0028 | 0.0055 ± 0.011 | 0.007 ± 0.017 | 0.017 ± 0.031 | 0.0045 ± 0.011
2 | 3C:CD54/ICAM-1 | -0.016 ± 0.0014 | -0.0105 ± 0.018 | 0.0025 ± 0.0092 | -0.0145 ± 0.03 | -0.028 ± 0.021 | -0.0075 ± 0.022 | -0.0055 ± 0.012 | 0.0005 ± 0.016 | 0.0055 ± 0.021 | 0.0015 ± 0.0092 | 0.0085 ± 0.005 | 0 ± 0.0057 | 0.0025 ± 0.0078 | 0.012 ± 0.0014 | 0.0105 ± 0.0021 | 0.015 ± 0.0071 | -0.002 ± 0.014 | -0.008 ± 0.0042 | 0.005 ± 0.0099 | 0.013
3 | 3C:CD62E/E-Selectin | -0.024 | -0.0235 ± 0.0092 | 0.017 ± 0.03 | -0.0085 ± 0.0035 | 0.0005 ± 0.0064 | 0.0175 ± 0.026 | -0.0065 ± 0.03 | -0.0235 ± 0.036 | -0.005 ± 0.0071 | 0.004 ± 0.011 | 0.008 ± 0.018 | -0.0025 ± 0.00071 | -0.0165 ± 0.0035 | -0.0025 ± 0.029 | -0.004 ± 0.0085 | 0.0025 ± 0.019 | -0.0075 ± 0.011 | 0.012 ± 0.0042 | 0.0685 ± 0.018 | 0.002 ± 0.014
4 | 3C:CD106/VCAM-1 | -0.0075 ± 0.04 | -0.0265 ± 0.005 | 0.006 ± 0.0028 | 0.002 ± 0.023 | -0.0055 ± 0.021 | 0.0235 ± 0.015 | -0.016 ± 0.027 | -0.0105 ± 0.036 | -0.01 ± 0.0028 | -0.02 ± 0.0042 | -0.0205 ± 0.022 | 0.003 ± 0.024 | 0.0075 ± 0.018 | 0 ± 0.047 | -0.0005 ± 0.012 | -0.001 ± 0.021 | -0.0085 ± 0.026 | -0.029 ± 0.0042 | -0.014 ± 0.025 | 0.005 ± 0.0057
5 | 3C:CD141/Thrombomodulin | -0.0285 ± 0.0078 | -0.008 ± 0.013 | 0.0035 ± 0.0035 | 0.024 ± 0.021 | 0.0345 ± 0.005 | 0.0685 ± 0.042 | 0.0105 ± 0.0078 | -0.042 ± 0.05 | -0.0385 ± 0.025 | -0.047 ± 0.031 | -0.031 ± 0.0057 | -0.025 ± 0.013 | -0.023 ± 0.014 | -0.0015 ± 0.005 | -0.019 ± 0.025 | -0.0445 ± 0.012 | -0.008 ± 0.035 | -0.015 ± 0.023 | -0.004 ± 0.0028 | -0.032
6 | 3C:CD142/Tissue Factor | -0.004 ± 0.0014 | -0.021 ± 0.0099 | 0.0105 ± 0.005 | 0.0225 ± 0.011 | 0.018 ± 0.027 | 0.0395 ± 0.056 | -0.0345 ± 0.022 | -0.0335 ± 0.015 | 0.003 ± 0.016 | 0.0155 ± 0.00071 | 0.0295 ± 0.00071 | 0.0025 ± 0.032 | 0.0005 ± 0.013 | 0.0185 ± 0.022 | -0.013 ± 0.013 | -0.029 ± 0.0042 | 0.014 ± 0.023 | 0.0105 ± 0.025 | 0.0545 ± 0.011 | -0.007 ± 0.0057
7 | BE3C:Keratin 8/18 | -0.017 ± 0.014 | -0.021 ± 0.011 | 0.0075 ± 0.00071 | -0.006 ± 0.0057 | -0.011 ± 0.0071 | 0.0035 ± 0.032 | -0.0025 ± 0.0021 | -0.009 ± 0.0014 | -0.019 ± 0.02 | -0.009 ± 0.034 | -0.02 ± 0.0071 | -0.007 ± 0.037 | -0.0105 ± 0.0078 | 0.005 ± 0.024 | 0.0035 ± 0.029 | -0.337 ± 0.0035 | 0.0085 ± 0.0035 | 0.0005 ± 0.0064 | -0.018 ± 0.0085 | 0.0155 ± 0.032
8 | BE3C:MMP-1 | -0.033 ± 0.059 | -0.0175 ± 0.0035 | 0.008 ± 0.051 | -0.015 ± 0.03 | -0.0175 ± 0.029 | 0.027 ± 0.047 | -0.0055 ± 0.022 | -0.032 ± 0.031 | 0.004 ± 0.023 | 0.074 ± 0.03 | 0.162 ± 0.0078 | -0.003 ± 0.0085 | -0.0065 ± 0.011 | 0.043 ± 0.016 | 0.211 ± 0.041 | -0.4875 ± 0.0035 | 0.0075 ± 0.00071 | 0.0375 ± 0.018 | 0.227 ± 0.042 | 0.016 ± 0.033
9 | BE3C:MMP-9 | -0.0105 ± 0.019 | 0.02 ± 0.023 | -0.009 ± 0.02 | -0.0325 ± 0.0078 | -0.0105 ± 0.015 | 0.0215 ± 0.035 | -0.0195 ± 0.011 | -0.069 ± 0.018 | -0.0125 ± 0.0092 | 0.026 ± 0.0099 | 0.0525 ± 0.021 | 0.0075 ± 0.0092 | 0.013 ± 0.0028 | 0.001 ± 0.023 | 0.008 ± 0.014 | -0.458 ± 0.0028 | 0.0095 ± 0.026 | 0.014 ± 0.0071 | 0.0275 ± 0.00071 | 0.0055 ± 0.026
10 | BE3C:PAI-I | -0.0235 ± 0.025 | -0.014 ± 0.038 | -0.0175 ± 0.023 | -0.021 ± 0.0071 | -0.02 ± 0.0057 | 0.015 ± 0.057 | -0.015 ± 0.044 | -0.05 ± 0.011 | -0.025 ± 0.061 | -0.0105 ± 0.056 | 0.008 ± 0.1 | -0.0245 ± 0.04 | -0.0045 ± 0.025 | 0.006 ± 0.037 | -0.0475 ± 0.013 | -0.4 ± 0.047 | 0.0035 ± 0.00071 | -0.003 ± 0.0085 | 0.001 ± 0.0014 | -0.0545 ± 0.049
11 | BE3C:SRB | -0.003 ± 0.0014 | -0.004 ± 0.0099 | 0.0025 ± 0.0021 | 0.002 ± 0.0085 | -0.0035 ± 0.005 | 0 ± 0.016 | 0.0055 ± 0.0092 | 0.0095 ± 0.005 | -0.003 ± 0.0057 | -0.0105 ± 0.0021 | -0.0085 ± 0.012 | -0.0125 ± 0.005 | 0.001 ± 0.017 | 0 ± 0.013 | -0.0245 ± 0.005 | -0.664 ± 0.021 | -0.0035 ± 0.022 | -0.013 ± 0.0085 | -0.017 ± 0.011 | -0.0065 ± 0.0092
12 | BE3C:tPA | -0.016 ± 0.0014 | -0.0305 ± 0.012 | -0.006 ± 0.016 | -0.059 ± 0.011 | -0.043 ± 0.017 | -0.013 ± 0.064 | 0.0105 ± 0.0064 | 0.0165 ± 0.016 | -0.0055 ± 0.074 | 0.0465 ± 0.073 | 0.0495 ± 0.047 | -0.008 ± 0.028 | -0.008 ± 0.023 | 0.0125 ± 0.028 | 0.0215 ± 0.026 | -0.546 ± 0.0085 | -0.0105 ± 0.0064 | 0.0015 ± 0.0035 | 0.012 ± 0.0014 | -0.014 ± 0.025
13 | BE3C:uPA | -0.016 ± 0.05 | -0.009 ± 0.016 | 0.0055 ± 0.06 | -0.0115 ± 0.0021 | -0.013 ± 0.0057 | 0.004 ± 0.018 | 0.0045 ± 0.00071 | -0.0085 ± 0.016 | 0.013 ± 0.011 | -0.0005 ± 0.019 | -0.0025 ± 0.033 | 0.0175 ± 0.015 | -0.0005 ± 0.0035 | 0.001 ± 0.0085 | -0.0025 ± 0.011 | -0.38 ± 0.0099 | 0.0145 ± 0.016 | -0.0005 ± 0.028 | 0.0115 ± 0.019 | 0.0005 ± 0.016
14 | CASM3C:CCL2/MCP-1 | 0.006 | -0.0065 ± 0.012 | 0.0065 ± 0.016 | -0.0085 ± 0.005 | -0.0125 ± 0.019 | -0.0015 ± 0.015 | 0.008 ± 0.0014 | 0.0155 ± 0.0092 | -0.0045 ± 0.011 | -0.006 ± 0.028 | -0.001 ± 0.037 | 0.006 ± 0.0099 | -0.0085 ± 0.019 | 0.0015 ± 0.049 | 0.006 ± 0.02 | 0 ± 0.0042 | -0.0215 ± 0.018 | -0.013 ± 0.0085 | 0.0035 ± 0.00071 | -0.0115 ± 0.012
